Measured values: patent US7094602B2, “Method for cell culture” (Fuji Photo Film Co, Ltd., priority 2002, dated 2006)

How the values were obtained:
[1] = test system: CHL (Chinese Hamster Lung Cell); test: Detachment of cultured cell layer from carrier for cell culture (Example 2); assay type: cell-based; details: time required to detach CHL cell layer from calcium alginate/collagen carrier on immersion; MEM with EDTA, 3 g/l HMPA or 3 mM HEDP
Description: • Used cell: CHL (Chinese Hamster Lung Cell) • Used medium: Eagle's minimum medium containing 10% bovine fetal serum Carrier for Cell Culture: The carrier for cell culture prepared in Example 1, adhered to bottom surfaces of polystyrene cell culture dishes with double-sided tapes, and a polystyrene cell culture dishes alone as a comparative example were subjected to UV sterilization or electron beam sterilization. The operation, wherein the medium was added to the dishes to immerse the carrier for cell cultures for 5 minutes and then the medium was exchanged, was repeated three times, and then the dishes were left overnight to allow the medium to infiltrate into the carriers for cell culture. The calls cultured beforehand were collected by trypsin treatment, and the cell density was adjusted to 50,000 cells/ml. After the medium in the cells and dishes was discarded, the cell suspension was inoculated into the dishes at a cell number of 10,000 cells/cm^2, and then the medium was added. Thereafter, the cells were cultured at 37° C. for two days by using a CO2 incubator. The samples obtained by the culture were immersed in each of the following seven kinds of detachment solutions and non-detachment solutions, and then the cell layers were pulled with a pair of tweezers to examine state of detachment of the cell layers from the carriers for cell culture. A period of time required for the detachment of each cell layer was measured. Then, the cell sheets detached with an immersion time in a detachment solution of 30 minutes was placed on a polystyrene cell culture dish, added with the medium and cultured at 37° C. for one day by using a CO2 incubator. The cells were stained with trypan blue and observed under an optical microscope. The use of detachment agents of the present invention provided favorable detachment characteristics, that is, high survival rate of the cells and non-stimulative property (i.e., no cell deformation due to stimulation) was successfully confirmed. […]

[2] = test system: CHL cells; test: Influence of chelating agent on cultured cells (Example 5); assay type: cell-based, Chinese Hamster; details: cultured two days at 37° C. in the medium, 1.5 mM EDTA, GEDTA, DTPA, EDTPO, 3 g/l HMPA, 3 mM HEDP
Description: CHL cells cultured beforehand were collected by trypsinization, and the cell density was adjusted to 50000 cells/ml. This cell suspension was inoculated on a polystyrene cell culture dish at a cell number of 10000 cells/cm^2, and each of the following media was added. Then, the cells were cultured at 37° C. for two days by using a CO2 incubator. The results of evaluation of stimulative property on the cells based on morphology and proliferation property of the cultured cells are shown in Table 3. The results are represented by using the result obtained for the cells cultured with the medium a mention d in the table as a standard. […] Eagle's minimum medium (MEM) • Medium b: […] MEM added with 1.5 mM diethylenetriamine-N,N,N′,N,N-pentaacetic acid (DTPA) • Medium e: MEM added with 3 g/l of sodium hexametaphosphate (HMPA) • Medium f: […] MEM added with 1.5 mM ethylenediamine-N,N,N′,N′-tetrakis(methylenephosphoric acid) (EDTPO) As for the media b to f, pH was adjusted to that of the medium a with NaOH or HCl after the chemicals were added.

[3] = test system: CHL (Chinese Hamster Lung Cell); assay type: cell-based; details: cell layer transfer with weighting 0.8 g/cm^2, immersion 10 minutes, culture one day, immersion 20 minutes; for State of cells after detachment: Morphology of survived cells: optical microscope; for State of cells after detachment: Survival rate: trypan blue
From the text: The samples obtained by the culture on the carriers for cell culture in Example 2 were taken out together with the carriers for cell culture, and placed on polystyrene cell culture dishes in such a manner that the cell layer surfaces contacted with the dishes, and foamed urethane filters having a thickness of 3 mm and stainless steel plates were placed thereon in this order. The weight of each stainless steel plate was adjusted so that the total weight including the weight of the urethane filter became 0.8 g/cm^2. Then, the samples were immersed in the detachment solution (iii), (iv) or (v) mentioned in Example 2 for 10 minutes, and after the solution was replaced with the medium, culture was performed at 37° C. for one day by using a CO2 incubator. The cultures were immersed in the same detachment solutions for 20 minutes, and then the carriers for cell culture were detached by pulling with a pair of tweezers. Then, the solutions were replaced with the medium, and culture was continued at 37° C. for one day by using a CO2 incubator. The cells were stained with trypan blue and then observed under an optical microscope. Favorable results were obtained with the detachment solutions of the present invention. In the sample where the weight was applied only by using the stainless steel plates without using the […] and the sample where the detachment solution (i) was used, the cells died during the transfer operation. Further, in the sample where the detachment solution (ii) was used, transfer was not successful.

[4] = test system: HepG2 (human liver cancer derived cells) laminated on BRL (Buffalo Rat Liver 3A); test: Lamination of cell layers, cytochrome P-450 3A metabolism of BFC to HFC (Example 4); assay type: cell-based; details: HepG2 layer transferred on BRL with the detachment solution; cultured 90 hours, BFC added, cultured two days
Description: In the same manner as that of Example 2, HepG2 (human liver cancer derived cells) was cultured on the carrier for cell culture of Example 1, and BRL (Buffalo Rat Liver 3A, ATCC No. CRL 1442) was cultured on a polystyrene cell culture dish. Cell layers were transferred on the cells cultured on the dishes by using the detachment solution (v) mentioned in Example 2 in the same manner as that of Example 3 to obtain laminated cells.

O=C(O)CN(CCN(CC(=O)O)CC(=O)O)CC(=O)O [(iii) MEM + EDTA, EDTA]
Detachment time [1]: 15 min | State of cells: Morphology [2]: X (30% or less of not rounded cells are indicated with X) | State of cells: Proliferation rate ([2]; relative to medium a (MEM)): X (degradation to 70% or less is indicated with X)

O=P1([O-])OP(=O)([O-])OP(=O)([O-])OP(=O)([O-])OP(=O)([O-])OP(=O)([O-])O1.[Na+].[Na+].[Na+].[Na+].[Na+].[Na+] [(iv) MEM + HMPA, sodium hexametaphosphate]
Detachment time [1]: 10 min | State of cells after detachment: Morphology of survived cells [3]: Not deformed | State of cells after detachment: Survival rate [3]: 90% or more

CC(O)(P(=O)(O)O)P(=O)(O)O [(v) MEM + HEDP, 1-hydroxyethane-1,1-diphosphoric acid]
Detachment time [1]: 20 min | HFC produced through metabolism by cytochrome P-450 3A in laminated cells (fluorescence microscope) [4]: Fluorescence derived from HFC was observed in the portions of HepG2 | State of cells after detachment: Morphology of survived cells [3]: Not deformed | State of cells after detachment: Survival rate [3]: 90% or more
